Measurements published in patent US12629419B2, “Prevention or mitigation of T-cell engaging agent-related adverse effects” (Hoffmann-La Roche Inc., priority 2020, dated 2026).

Legend:
Assay type in all cases: cell-based
[1] = tested on: CD19-TCB-induced cytokine release; assay: CD19-TCB-induced cytokine release in SUDLH-8 assay (Luminex); settings: 24 hrs
Protocol: (§1) PBMCs were co-cultured together with CellTrace™ Violet (CTV) labelled SUDLH-8 tumor cells and escalating concentrations of CD19-TCB in the presence of the different kinase inhibitors, including also the Src inhibitor dasatinib (FIG. 64). At assay endpoint (24 hrs), the killing of CTV labelled SUDLH-8 cells was measured by flow cytometry by exclusion of the dead SUDLH-8 cells with a Live/Dead stain. […] Lastly, the levels of cytokines were measured in the supernatants of the assay to evaluate the effect of mTOR, JAK and Src inhibitors on CD19-TCB-induced cytokine release.
(§2) At assay endpoint (24 hrs), the killing of CTV labelled SUDLH-8 cells was measured by flow cytometry by exclusion of the dead SUDLH-8 cells with a Live/Dead stain. […] Lastly, the levels of cytokines were measured in the supernatants of the assay to assess the effect of the JAK inhibitors on CD19-TCB-induced cytokine release.
as §2, with “stain to evaluate the effect of the different mitigation approaches on CD19-TCB-dependent killing.” for “stain.”, “address” for “assess”

CTV WSU tumor cells = assay: tumor cell killing by PGLALA and CD16 universal CAR-T cells; settings: 100 nM inhibitor, 24 hours; for tumor cell killing by PGLALA CAR-T cells: PGLALA Fc anti-CD20 IgG; for tumor cell killing by CD16 CAR-T cells: wild-type Fc anti-CD20 IgG
Protocol: FIG. 61. CTV labelled WSU tumor cell killing by PGLALA CAR-T cells (A) and CD16 CAR-T cells (B) in the presence and absence of 100 nM ruxolitinib or 100 nM sirolimus. PGLALA CAR-T cells and CD16 CAR-T cells were co-cultured together with CTV labelled WSU tumor cells (E:T=10:1) and escalating concentrations of anti-CD20 IgG with either PGLALA-Fc (for PGLALA CAR-T cells) or wild-type Fc (for CD16 CAR-T cells) in the presence and absence of 100 nM ruxolitinib (ruxo) or 100 nM sirolimus (siro). At 24 hours, the technical replicates were pooled and stained with a LIVE/DEAD™ Near-IR dye to allow exclusion of dead CTV labelled WSU DLCL2 tumor cells by flow cytometry. 1 representative donor.
To assess the impact of JAK inhibitor ruxolitinib and mTOR inhibitor sirolimus on cytokine release induced by CAR-T cells, we conducted a killing assay where PGLALA and CD16 universal CAR-T cells (CAR-T cells with a CAR comprising an anti-P329G-Fc scFv (binding to PGLALA Fc) or CD16 (binding to wild-type Fc)) were co-cultured with CTV WSU tumor cells in the presence of escalating concentrations of PGLALA Fc and wild-type Fc anti-CD20 IgG in medium supplemented with 100 nM ruxolitinib or 100 nM sirolimus. To verify whether ruxolitinib and sirolimus interfered with tumor cell killing by CAR-T cells, we measured killing of CTV WSU tumor cells by flow cytometry at 24 hours.

[2] = tested on: MKN45 NucLight Red (NLR) target cells; assay: killing assay with PBMCs, MKN45 NLR target cells and CEA-TCB (Incucyte)
CD4+ and CD8+ T cells = assay: T cell activation (CD25, CD69) in CD20-TCB killing assay; settings: 1 nM CD20-TCB; 24 h; inhibitor 0 nM to 1000 nM
Protocol: A similar experiment was conducted with another TCB. WSU DLCL2 cells were co-cultured together with PBMCs in the presence of 1 nM CD20-TCB (SEQ ID NOs 4-11, 24-35), and escalating sirolimus doses ranging from 0 nM to 1000 nM (FIG. 13).
A similar experiment was conducted with CD20-TCB.
A similar experiment was conducted with CD20-TCB. WSU DLCL2 cells were co-cultured together with PBMCs in the presence of 1 nM CD20-TCB, and escalating everolimus doses ranging from 0 nM to 1000 nM (FIG. 13).
A similar experiment was conducted with CD20-TCB. WSU DLCL2 cells were co-cultured together with PBMCs in the presence of 1 nM CD20-TCB, and escalating ruxolitinib doses ranging from 0 nM to 1000 nM (FIG. 13).
A similar experiment was conducted with another TCB. […] The killing of B cells was measured as a readout for the impact of the various compounds on TCB efficacy at 24 h (FIGS. 27 and 28). […] Lastly, the levels of cytokines (TNF-α, IFN-γ, IL-2, IL-6, IL-4, IL-10, GM-CSF and IL-1β) were analyzed by Luminex at assay endpoint to assess the impact of the different treatments on TCB-induced cytokine release (FIGS. 32 and 33).
At 24 hours, tumor cell killing was measured by flow cytometry by exclusion of dead CTV cells. The supernatants were collected and cytokines were measured by Luminex.

SUDLH-8 tumor cells = assay: killing assay with PBMCs, CTV labelled SUDLH-8 tumor cells and CD19-TCB; settings: 24 hrs; 100 nM kinase inhibitors or dexamethasone, 5 μg/mL antibodies
Protocol: FIG. 64. In vitro killing assay set-up. PBMCs were co-cultured with CellTrace™ Violet (CTV) labelled SUDLH-8 tumor cells (E:T=10:1) in the presence of escalating concentrations of CD19-TCB in media supplemented with the different kinase inhibitors (100 nM) for 24 hrs.
FIG. 69. In vitro killing assay set-up. PBMCs were co-cultured with CTV labelled SUDLH-8 cells (E:T=10:1) in the presence of escalating concentrations of CD19-TCB in media supplemented with the different JAK inhibitors (100 nM) for 24 hrs.
FIG. 73. In vitro killing assay set-up.
as §1, §2
as §2, with “stain to evaluate the effect of the different mitigation approaches on CD19-TCB-dependent killing.” for “stain.”, “address” for “assess”

[3] = 100 nM, compared with dexamethasone
[4] = inhibitor doses 12.5 nM to 1 μM, 50 000 PBMCs: 5 000 target cells, Incucyte

Row | SMILES | CD19-TCB-induced cytokine release ([1]; 100 nM inhibitor) | CD19-TCB-induced IFN-γ and TNF-α [1, 3] | tumor cell killing by PGLALA CAR-T cells (CTV WSU tumor cells) | tumor cell killing by CD16 CAR-T cells (CTV WSU tumor cells) | MKN45 NLR target cell killing by 10 nM CEA-TCB [2, 4] | T cell activation (CD25 and CD69 on CD4+ and CD8+ T cells) (CD4+ and CD8+ T cells) | CD19-TCB-dependent killing of CTV labelled SUDLH-8 cells (SUDLH-8 tumor cells) | CD19-TCB-induced IFN-γ, TNF-α, IL-6 and GM-CSF release ([1]; 100 nM inhibitor) | CD19-TCB-induced IL-2 and GM-CSF [1, 3] | killing of MKN45 NLR tumor cells induced by 1 nM CEA-TCB ([2]; concentration of 1 μM) | killing of MKN45 NLR tumor cell induced by 1 nM CEA-TCB ([2]; concentrations between 0 nM and 100 nM) | MKN45 NLR target cell killing by 10 nM CEA-TCB ([2]; inhibitor doses 6.25 nM to 100 nM)
1 | CO[C@H]1C[C@@H]2CC[C@@H](C)[C@@](O)(O2)C(=O)C(=O)N2CCCC[C@H]2C(=O)O[C@H]([C@H](C)C[C@@H]2CC[C@@H](O)[C@H](OC)C2)CC(=O)[C@H](C)/C=C(\C)[C@@H](O)[C@@H](OC)C(=O)[C@H](C)C[C@H](C)/C=C/C=C/C=C/1C [sirolimus, Sirolimus] | comparable to the effect of the corticosteroid dexamethasone | comparable to the effect of dexamethasone | neither sirolimus nor ruxolitinib prevented | neither sirolimus nor ruxolitinib prevented | only partially reduced | did not fully inhibit | did not prevent | – | – | – | – | –
2 | N#CC[C@H](C1CCCC1)n1cc(-c2ncnc3[nH]ccc23)cn1 [ruxolitinib, Ruxolitinib] | comparable to the effect of the corticosteroid dexamethasone | comparable to the effect of dexamethasone | neither sirolimus nor ruxolitinib prevented | neither sirolimus nor ruxolitinib prevented | – | did not fully inhibit | did not prevent | prevented | weaker | partially prevented | did not prevent | only partially reduced
3 | CO[C@H]1C[C@@H]2CC[C@@H](C)[C@@](O)(O2)C(=O)C(=O)N2CCCC[C@H]2C(=O)O[C@H]([C@H](C)C[C@@H]2CC[C@@H](OCCO)[C@H](OC)C2)CC(=O)[C@H](C)/C=C(\C)[C@@H](O)[C@@H](OC)C(=O)[C@H](C)C[C@H](C)/C=C/C=C/C=C/1C [everolimus, Everolimus] | comparable to the effect of the corticosteroid dexamethasone | comparable to the effect of dexamethasone | – | – | only partially reduced | did not fully inhibit | did not prevent | – | – | – | – | –
4 | CO[C@H]1C[C@@H]2CC[C@@H](C)[C@@](O)(O2)C(=O)C(=O)N2CCCC[C@H]2C(=O)O[C@H]([C@H](C)C[C@@H]2CC[C@@H](OC(=O)C(C)(CO)CO)[C@H](OC)C2)CC(=O)[C@H](C)/C=C(\C)[C@@H](O)[C@@H](OC)C(=O)[C@H](C)C[C@H](C)/C=C/C=C/C=C/1C [temsirolimus, Temsirolimus] | comparable to the effect of the corticosteroid dexamethasone | comparable to the effect of dexamethasone | – | – | only partially reduced | did not fully inhibit | did not prevent | – | – | – | – | –
